Tests used:
[1] = system: human gastric cancer cell line MKN-74; assay: Inhibitory effect on cancer at a specific site (subcutaneous tumor) of mice with MKN-74 tumor (Example 2); type: in vivo; settings: DEG 5 μM in combination with Szd 16 μL in 200 μL PBS, intratumoral; ultrasound 1 W/cm^2, 1 MHz, 50% duty cycle, 10 minutes, three times on alternate days
Protocol: Mice were inoculated subcutaneously with ca. 5×10^6 cells of human gastric cancer cell line MKN-74 and a PBS suspension (200 μL) composed of the ultrasound-sensitive substance (DEG; 5 μM) and the acoustic cavitation phenomenon-enhancing substance (Szd; 16 μL) was administered intratumorally, followed by irradiating the mice with ultrasound waves of 1 W/cm^2 and 1 MHZ under a condition of 50% duty cycle for 10 minutes using Sonitron 100. The ultrasound waves were irradiated three times on alternate days. The results of the cancer sizes are shown by arrow mark (↑) in FIG. 4.

[2] = system: human gastric cancer cell line MKN-74; assay: Ultrasonic treatment of SCID mice carrying subcutaneous MKN-74 cancer (Example 1); type: in vivo; settings: DEG 5 μM + SONAZOID 16 μL in 300 μL saline, intratumoral; single treatment with low-intensity pulsed ultrasound 2 W/cm^2, 1 MHz, 50% duty cycle, 10 minutes; three weeks after treatment
Protocol: SCID mice as cancer-carrying animals were inoculated subcutaneously with human gastric cancer cell line MKN-74 which was in turn grown to a diameter of the cancer size of approximately 20 mm and then subjected to treatment by ultrasound waves. The ultrasonic treatment was carried out using the porphyrin derivative, [7,12-bis(1-(2-(2-hydroxyethoxy)ethoxy)ethyl)-3,8,13,17-tetramethylporphyrin-2,18-dipropionato]manganese (DEG), as the ultrasound-sensitive substance and an ultrasound contrast agent containing lipid stabilized perfluorobutane microbubbles in an aqueous solution (SONAZOID™) as the acoustic cavitation phenomenon-enhancing substance by irradiating the mice with low-intensity pulsed ultrasound waves of 2 W/cm^2 and 1 MHz under a condition of 50% duty cycle for 10 minutes. The ultrasonic treatment was performed by suspending 5 μM of the ultrasound sensitive substance and 16 μL of the acoustic cavitation phenomenon-enhancing substance in 300 μL of saline and irradiating the mice with the ultrasound waves immediately after intratumoral administration of the resulting suspension. The states of development of the cancer were observed immediately after ultrasonic treatment, one week and three weeks thereafter.

For “7,12-bis(1-(2-(2-hydroxyethoxy)ethoxy)ethyl)-3,8,13,17-tetra-methylporphyrin-2,18-dipropionato]manganese [DEG]”, the “antitumor effect, one remaining case of three” value [1] was “significant antitumor effect”, the “antitumor effect, two cases out of three” value [1] was “remarkable effects” and the “state of development of the cancer (tumor size)” value [2] was “dramatic regression of the cancer”.
